The source of these data is ChEMBL document CHEMBL1201862, “PubChem BioAssay data set” (2004).

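Dose response: 5 concentrations. Exposure: 48 h. Format: 96-well plates. Endpoint: linear interpolation; highest concentration if not reached. Abbreviation: GI50, concentration required for 50% inhibition of growth.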 Activity calls are given as the source filed them. Rule as the data show it: active = GI50 up to about 1.1 µM and inactive = higher.

Some test systems named below: LOX IMVI; NCI-H23; OVCAR-3; ACHN; SN12C; SR; NCI/ADR-RES; UACC-62; MDA-N; SK-MEL-5; Malme-3M; CAKI-1; NCI-H460; SW-620; SF-268; MDA-MB-435; NCI-H226; HCT-116; MDA-MB-231; 786-0.
Common to all, as to test: DTP human tumour cell line panel, 48 h

A word on the GI50: it is the concentration that inhibits growth by half. Take `N/C(=N\Nc1ccc(C(=O)O)cc1)c1cnccn1`: the GI50 in the experiment with LOX IMVI, in the experiment with NCI-H23, in the experiment with OVCAR-3, in the experiment with ACHN, with SN12C and in the experiment on SR was > 100 µM (inactive) throughout. The GI50 was > 100 µM (inactive) in the experiment on NCI/ADR-RES; > 100 µM (inactive) with UACC-62; > 100 µM (inactive) in the experiment with MDA-N; > 100 µM (inactive) in the experiment on SK-MEL-5; 37.2 µM (inactive) in the experiment on Malme-3M; > 100 µM (inactive) in the experiment with CAKI-1. The GI50 with NCI-H460, with SW-620, in the experiment on SF-268, with MDA-MB-435, in the experiment on NCI-H226 and in the experiment with HCT-116 was > 100 µM (inactive) in each case. Also, the GI50 in the experiment on MDA-MB-231 and with 786-0 was > 100 µM (inactive) in each case.

Take `Cc1ncc2c(=O)c3c(oc2n1)c1ccccc1n3Cc1ccccc1`: the GI50 in the experiment on LOX IMVI was > 100 µM (inactive); with NCI-H23 it was > 100 µM (inactive); in the experiment on OVCAR-3, > 100 µM (inactive); with ACHN it was 53.5 µM (inactive); in the experiment on SN12C it was > 100 µM (inactive); in the experiment on SR, > 100 µM (inactive). Further, the GI50 with NCI/ADR-RES was > 100 µM (inactive); with UACC-62, 27 µM (inactive); in the experiment on MDA-N, > 100 µM (inactive); with SK-MEL-5, > 100 µM (inactive); with Malme-3M, > 100 µM (inactive); in the experiment on CAKI-1, > 100 µM (inactive). The GI50 with NCI-H460, in the experiment with SW-620, in the experiment with SF-268, in the experiment on MDA-MB-435, in the experiment on NCI-H226 and in the experiment on HCT-116 was > 100 µM (inactive) throughout. Also, the values for the GI50 in the experiment on MDA-MB-231 and with 786-0 were > 100 µM (inactive) and 84.9 µM (inactive), respectively.

`O=C1c2cccnc2-c2nccc3c2c1nc1ccc(Br)cc13`: the GI50 in the experiment with LOX IMVI was 0.0221 µM (active); in the experiment on NCI-H23, 0.0313 µM (active); in the experiment with OVCAR-3, 0.0207 µM (active); with ACHN it was 0.0263 µM (active); in the experiment with SN12C, 0.0482 µM (active); with SR it was 0.012 µM (active). In addition, the GI50 is 0.034 µM (active) with NCI/ADR-RES; 0.0569 µM (active) with UACC-62; 0.109 µM (active) with MDA-N; 0.0247 µM (active) in the experiment with SK-MEL-5; 0.102 µM (active) with Malme-3M; 0.0536 µM (active) in the experiment with CAKI-1. For the same molecule, the GI50 with NCI-H460 is 0.065 µM (active); in the experiment on SW-620 it was 0.0404 µM (active); in the experiment on SF-268, 0.0242 µM (active); with MDA-MB-435, 0.0887 µM (active); in the experiment with NCI-H226 it was 0.0199 µM (active); in the experiment on HCT-116 it was < 0.0136 µM (active). The GI50 was < 0.0201 µM (active) in the experiment on MDA-MB-231 and 0.0248 µM (active) with 786-0.

As for `Cc1ccc(S(=O)(=O)NNC(=O)c2cc(C)ccc2NC(=O)C23CC4CC(CC(C4)C2)C3)cc1`, the GI50 with LOX IMVI is > 100 µM (inactive); in the experiment on NCI-H23, 36.1 µM (inactive); with OVCAR-3 it was 34.4 µM (inactive); in the experiment on ACHN, 21.1 µM (inactive); in the experiment on SN12C, 44.4 µM (inactive); in the experiment on SR it was 84.5 µM (inactive). The GI50 in the experiment with NCI/ADR-RES is 38.5 µM (inactive); in the experiment on UACC-62 it was 39.7 µM (inactive); with MDA-N, > 100 µM (inactive); with SK-MEL-5, 61.5 µM (inactive); in the experiment on Malme-3M, 23.5 µM (inactive); in the experiment with CAKI-1 it was 46 µM (inactive). Moreover, the GI50 was 43.8 µM (inactive) with NCI-H460; 92.9 µM (inactive) in the experiment on SW-620; 41.7 µM (inactive) with SF-268; 61.9 µM (inactive) in the experiment with MDA-MB-435; 60.7 µM (inactive) with NCI-H226; 31.2 µM (inactive) with HCT-116. In addition, the GI50 in the experiment with MDA-MB-231 is 41.6 µM (inactive); in the experiment on 786-0, 21.9 µM (inactive).

On to `NS(=O)(=O)c1nnc(NC(=O)c2cccc([N+](=O)[O-])c2)s1`, for which the GI50 in the experiment on LOX IMVI, in the experiment on NCI-H23, in the experiment on OVCAR-3, in the experiment on ACHN, in the experiment on SN12C and with SR was > 100 µM (inactive) in each case. Moreover, the GI50 in the experiment with NCI/ADR-RES, in the experiment on UACC-62, in the experiment on MDA-N, with SK-MEL-5, in the experiment with Malme-3M and with CAKI-1 was > 100 µM (inactive) each time. The GI50 with NCI-H460, in the experiment with SW-620, with SF-268, in the experiment on MDA-MB-435, in the experiment with NCI-H226 and in the experiment on HCT-116 was > 100 µM (inactive) in each case. Also, the GI50 in the experiment with MDA-MB-231 and in the experiment with 786-0 was > 100 µM (inactive) throughout.

As for `O=[N+]([O-])c1cc(Br)cc2cc(Cl)cnc12`, the GI50 was 82.6 µM (inactive) with LOX IMVI; > 100 µM (inactive) with NCI-H23; > 100 µM (inactive) in the experiment with OVCAR-3; > 100 µM (inactive) in the experiment with ACHN; > 100 µM (inactive) with SN12C; > 100 µM (inactive) in the experiment on SR. For the same molecule, the GI50 was > 100 µM (inactive) with NCI/ADR-RES; 61.4 µM (inactive) in the experiment on UACC-62; > 100 µM (inactive) in the experiment with MDA-N; 81.8 µM (inactive) in the experiment on SK-MEL-5; > 100 µM (inactive) in the experiment on Malme-3M; > 100 µM (inactive) with CAKI-1. For the same molecule, the GI50 in the experiment on NCI-H460 is > 100 µM (inactive); in the experiment with SW-620, 14.5 µM (inactive); in the experiment with SF-268, 89.9 µM (inactive); with MDA-MB-435 it was > 100 µM (inactive); with NCI-H226, > 100 µM (inactive); with HCT-116, > 100 µM (inactive). The GI50 with MDA-MB-231 and in the experiment with 786-0 was > 100 µM (inactive) each time.

On to `CCCCCCC(=O)OC[n+]1ccc2c(C)c3[nH]c4ccc(OC)cc4c3c(C)c2c1`, for which the GI50 was 0.217 µM (active) in the experiment on LOX IMVI; 0.329 µM (active) in the experiment with NCI-H23; 1.57 µM (inactive) with OVCAR-3; 0.0656 µM (active) in the experiment with ACHN; 0.0625 µM (active) in the experiment on SN12C; 0.0486 µM (active) in the experiment with SR. The GI50 in the experiment with NCI/ADR-RES is 0.2 µM (active); with UACC-62, 0.953 µM (active); in the experiment on MDA-N it was 0.324 µM (active); with SK-MEL-5 it was 1.16 µM (inactive); with Malme-3M, 1.01 µM (active); with CAKI-1, 0.865 µM (active). Further, the GI50 in the experiment on NCI-H460 was 0.0382 µM (active); in the experiment with SW-620, 0.0628 µM (active); with SF-268, 0.154 µM (active); in the experiment on MDA-MB-435 it was 0.454 µM (active); in the experiment on NCI-H226, 0.476 µM (active); in the experiment with HCT-116, 0.054 µM (active). Besides, the GI50 is 0.269 µM (active) in the experiment on MDA-MB-231 and 0.0708 µM (active) in the experiment with 786-0.

As to `CC(C)(C)c1cc(C2NCCO2)cc(C(C)(C)C)c1O` (stereo not given), the GI50 in the experiment with LOX IMVI is > 100 µM (inactive); in the experiment with NCI-H23, 51.4 µM (inactive); with OVCAR-3, > 100 µM (inactive); in the experiment with ACHN it was > 100 µM (inactive); in the experiment with SN12C, 89.7 µM (inactive); with SR, > 100 µM (inactive). Also, the GI50 in the experiment on NCI/ADR-RES was > 100 µM (inactive); in the experiment with UACC-62 it was > 100 µM (inactive); in the experiment on MDA-N, > 100 µM (inactive); in the experiment on SK-MEL-5, > 100 µM (inactive); in the experiment on Malme-3M, > 100 µM (inactive); in the experiment with CAKI-1, 45.9 µM (inactive). Moreover, the GI50 with NCI-H460 was > 100 µM (inactive); in the experiment with SW-620, > 100 µM (inactive); in the experiment on SF-268, 32.4 µM (inactive); in the experiment on MDA-MB-435 it was > 100 µM (inactive); in the experiment on NCI-H226, > 100 µM (inactive); in the experiment on HCT-116 it was > 100 µM (inactive). In addition, the values for the GI50 in the experiment on MDA-MB-231 and in the experiment with 786-0 were 20.6 µM (inactive) and 65.8 µM (inactive), respectively.

For `CN(CCNC(=O)c1n[nH]c2c1ccc1ccccc12)CCNC(=O)c1n[nH]c2c1ccc1ccccc12`, the GI50 in the experiment on LOX IMVI was 1.78 µM (inactive); in the experiment on NCI-H23, 1.96 µM (inactive); in the experiment on OVCAR-3 it was 2.05 µM (inactive); in the experiment with ACHN, 1.83 µM (inactive); in the experiment with SN12C it was 1.8 µM (inactive); in the experiment on SR, 1.78 µM (inactive). Moreover, the GI50 in the experiment on NCI/ADR-RES was > 100 µM (inactive); in the experiment with UACC-62, 1.92 µM (inactive); in the experiment with MDA-N, 1.86 µM (inactive); in the experiment with SK-MEL-5 it was 1.71 µM (inactive); with Malme-3M, 1.9 µM (inactive); in the experiment on CAKI-1, 8.73 µM (inactive). For the same molecule, the GI50 was 2.3 µM (inactive) in the experiment on NCI-H460; 1.84 µM (inactive) in the experiment on SW-620; 2.14 µM (inactive) in the experiment with SF-268; 1.79 µM (inactive) with MDA-MB-435; 4.32 µM (inactive) in the experiment with NCI-H226; 2.13 µM (inactive) in the experiment on HCT-116. Besides, the GI50 is 1.94 µM (inactive) with MDA-MB-231 and 1.75 µM (inactive) with 786-0.

Regarding `CC(=O)Nc1ccc2c3c(cc(O)c2c1)N(C(=O)CCCCCCC(=O)Nc1ccc2c4c(cc(O)c2c1)N(C(=O)OC(C)(C)C)CC4CCl)CC3CCl` (stereo not given), the 50% growth inhibitory concentration (GI50) was 0.0391 µM (active) in the experiment with LOX IMVI; 0.0337 µM (active) in the experiment on NCI-H23; 0.045 µM (active) in the experiment with OVCAR-3; 0.0484 µM (active) in the experiment on ACHN; 0.13 µM (active) with SN12C; < 0.01 µM (active) with SR. Also, the GI50 in the experiment with NCI/ADR-RES is > 35.4 µM (inactive); with UACC-62 it was 0.0695 µM (active); with MDA-N, 0.134 µM (active); in the experiment with SK-MEL-5, 0.0217 µM (active); with Malme-3M, 0.083 µM (active); in the experiment on CAKI-1, 1.02 µM (active). The GI50 in the experiment on NCI-H460 was 0.0233 µM (active); in the experiment on SW-620, 0.0968 µM (active); in the experiment on SF-268, 0.0291 µM (active); with MDA-MB-435 it was 0.132 µM (active); with NCI-H226, 0.144 µM (active); in the experiment on HCT-116, 0.0408 µM (active). For the same molecule, the values for the GI50 with MDA-MB-231 and in the experiment on 786-0 were 0.319 µM (active) and 0.0757 µM (active), respectively.
